# Measured values: article PMC6202380 (2018)
# Columns and labels:
# [1] = system: bcl2Mid (DNA, G4) GGGCGCGGGAGGAATTGGGCGGG; assay: fluorimetric titration, independent-site model; conditions: 100 mM K+; 10 mM LiAsO2Me2, pH 7.2 (K-100); 2 µM ligand
# [2] = system: hras-1 (DNA, G4) TCGGGTTGCGGGCGCAGGGCACGGGCG; assay: fluorimetric titration, independent-site model; conditions: 100 mM K+; 10 mM LiAsO2Me2, pH 7.2 (K-100); 2 µM ligand
# [3] = system: CEB25^L111 (DNA, G4) AAGGGTGGGTGGGTGGGT; assay: fluorimetric titration, independent-site model; conditions: 100 mM K+; K-100 buffer, pH 7.2; 2 µM ligand; value from text, Table 2 prints 1.5 for this oligonucleotide
# [4] = system: Pu24T (DNA, G4) TGAGGGTGGTGAGGGTGGGGAAGG; assay: fluorimetric titration, independent-site model; conditions: 100 mM K+; 10 mM LiAsO2Me2, pH 7.2 (K-100); 2 µM ligand
# [5] = system: ds26 (DNA, duplex) CAATCGGATCGAATTCGATCCGATTG; assay: fluorimetric titration, independent-site model; conditions: 100 mM K+; 10 mM LiAsO2Me2, pH 7.2 (K-100); 2 µM ligand
# [6] = system: ^BrU-22AG (DNA, G4, 5-bromouracil (replacing T) at 5, 6, 11, 12, 17, 18) AGGGTTAGGGTTAGGGTTAGGG; assay: PAGE of UVA photoadduct; conditions: 100 mM K+; covalent; K-100 buffer, pH 7.2; 5 µM DNA, 25 µM ligand, 365 nm
# [7] = system: 22AG (DNA, G4) AGGGTTAGGGTTAGGGTTAGGG; assay: fluorimetric titration, independent-site model; conditions: 2 µM ligand
# [8] = system: F-CEB25^L111-T (DNA, G4) AAGGGTGGGTGGGTGGGT; assay: FRET melting; conditions: 1 mM K+, 99 mM Li+; 10 mM LiAsO2Me2, pH 7.2 (K-1); 0.2 µM DNA, 1 µM ligand
# [9] = system: 22CTA (DNA, G4) AGGGCTAGGGCTAGGGCTAGGG; assay: fluorimetric titration, independent-site model; conditions: 100 mM K+; 10 mM LiAsO2Me2, pH 7.2 (K-100); 2 µM ligand
# [10] = system: CEB25^WT (DNA, G4) AAGGGTGGGTGTAAGTGTGGGTGGGT; assay: fluorimetric titration, independent-site model; conditions: 100 mM K+; K-100 buffer, pH 7.2; 2 µM ligand; Table 2 prints 0.54, text gives 0.54 to CEB25^L111
# [11] = system: hras-1 (DNA, G4) TCGGGTTGCGGGCGCAGGGCACGGGCG; assay: CD spectroscopy; conditions: 100 mM K+; K-100 buffer, pH 7.2, 20 °C; 5 µM DNA, 10 µM ligand
# [12] = system: 22AG (DNA, G4) AGGGTTAGGGTTAGGGTTAGGG; assay: CD spectroscopy; conditions: 100 mM K+; K-100 buffer, pH 7.2, 20 °C; 5 µM DNA, 10 µM ligand
# [13] = system: 22AG (DNA, G4) AGGGTTAGGGTTAGGGTTAGGG; assay: fluorimetric titration; conditions: 100 mM K+; K-100 buffer, pH 7.2; 2 µM ligand; binding constant could not be determined
compound,measurement,setting,value
c1cc2ccc3ccc(CCCCNCCN4CCNCc5ccc6cc(ccc6c5)CNCCN(CCNCCCCc5ccc6ccc7cccc8ccc5c6c78)CCNCc5ccc6cc(ccc6c5)CNCC4)c4ccc(c1)c2c34,Ka,[1],1.8e+06 M⁻¹
same,Ka,[2],1.1e+06 M⁻¹
same,Ka,[3],540000 M⁻¹
same,Ka,[4],1.5e+06 M⁻¹
same,Ka,[5],480000 M⁻¹
same,binding,[6],yes
same,Ka,"[7]; 100 mM K+, 10 mM LiAsO2Me2, pH 7.2 (K-100)",1.8e+06 M⁻¹
same,Ka,"[7]; 100 mM Na+, 10 mM LiAsO2Me2, pH 7.2 (Na-100)",1.4e+06 M⁻¹
same,ΔT½,[8],11 °C
same,Ka,[9],3.9e+06 M⁻¹
same,Ka,[10],0.54 10^6 M^-1
NCCN(CCN)CCNCCCCc1ccc2ccc3cccc4ccc1c2c34,binding,[11],yes
same,binding,[12],yes
C[n+]1cc(NC(=O)c2ccc3ccc4ccc(C(=O)Nc5cc6ccccc6[n+](C)c5)nc4c3n2)cc2ccccc21,ΔT½,[8],13 °C
c1cc2ccc3ccc(CCCCNCCN4CCNCc5ccc6cc(ccc6c5)CNCCOCCNCc5ccc6cc(ccc6c5)CNCC4)c4ccc(c1)c2c34,binding,[13],yes
same,binding,[11],yes
same,binding,[6],yes
NCCCN1CCNCc2ccc3cc(ccc3c2)CNCCOCCNCc2ccc3cc(ccc3c2)CNCC1,binding,[11],yes
same,binding,[12],yes
